Read-outs that look alike come from different tables or passages of the source.
Tests used:
[1] = target: T1, PARP-1 enzyme (Homo sapiens, UniProt P09874); test: PARP-1 enzymatic inhibition assay (Trevigen 96-well kit, fluorescence); format: biochemical; conditions: Table 2 series (16a–n); logit method, six concentrations; read-out: IC50 (PARP-1 enzyme inhibitory activity)
T1 construct: purchased Trevigen 4690-096-K
Procedure: All target compounds were evaluated in vitro for their PARP-1 enzyme inhibitory activity.
The procedure was according to the instructions provided by the manufacturer. […] 25 μL of 1 × Buffer was added to each well and 25 μL of appropriate 2 × NAD^+ standards were added to 1B to 1G and 2B to 2G well of 96-well plate for standard curve. 25 μL of 2 μM NAD was added to 1H and 2H for PARP control. 25 μL of 2 μM NAD was added to wells for test compounds, then serially diluted compounds were added, and 1 μL of DMSO was added to the standard well. 25 μL of PARP Mix minus enzyme was added to 1A to 1G and 25 μL of PARP Mix plus enzyme was added to PARP control and compounds well. […] Then 50 μL stop solution was added to each well, and mixed with pipette. […] Then draw the standard curve and calculate the inhibition rate of each test compound.

[2] = in vitro; conditions: human, normal human lung fibroblast (HLF) cells
Procedure: (§1) The cytotoxic potencies of test compounds were determined on normal human lung fibroblast (HLF) cells. Cells were seeded into 96-well plate at 3000 cells/well. The stock solutions of test compounds were dissolved in DMSO and serially diluted to the required concentrations for 7 doses, and the final testing concentrations for these compounds were 0.3, 1, 3, 10, 30, 100, 300 µM. […] The fraction of surviving cells after compound treatment was determined using the MTT assay.

[3] = test system: normal human lung fibroblast (HLF) cells; test: Cytotoxicity assay (MTT) on normal human lung fibroblast cells; conditions: 72 h
Procedure: as §1

[4] = test system: HCC1937 (BRCA1-deficient) cells; test: CellTiter Glo assay for cell growth inhibition, HCC1937; conditions: HCC1937, 96 h, read-out: IC50 (BRCA-1, HCC1937)
Procedure: (§2) The growth inhibition potential of test compounds was determined on BRCA1-deficient cell lines HCC1937 and BRCA2-deficient cell lines CAPAN-1. The stock solutions of test compounds were dissolved in DMSO and serially diluted to the required concentrations for 9 doses. […] 60 μL medium was removed from each well and plates were kept at room temperature for 30 min. 60 μL reagent (Celltiter Glo assay kit, Promega, Sunnyvale, CA, USA) per well was added and plates were shaked for 2 min. Cells were incubated avoiding light at room temperature for 30 min and the luminescence value was recorded by multiplate reader. GraphPad Prism 5 was used to plot effect-dose curves and calculate the IC50 values of compounds.

[5] = test system: CAPAN-1 (BRCA2-deficient) cells; test: CellTiter Glo assay for cell growth inhibition, CAPAN-1; conditions: CAPAN-1, 96 h, read-out: IC50 (BRCA-2, CAPAN-1)
Procedure: as §2

[6] = CellTiter Glo, nine concentrations

T1 sequence (P09874 whole entry): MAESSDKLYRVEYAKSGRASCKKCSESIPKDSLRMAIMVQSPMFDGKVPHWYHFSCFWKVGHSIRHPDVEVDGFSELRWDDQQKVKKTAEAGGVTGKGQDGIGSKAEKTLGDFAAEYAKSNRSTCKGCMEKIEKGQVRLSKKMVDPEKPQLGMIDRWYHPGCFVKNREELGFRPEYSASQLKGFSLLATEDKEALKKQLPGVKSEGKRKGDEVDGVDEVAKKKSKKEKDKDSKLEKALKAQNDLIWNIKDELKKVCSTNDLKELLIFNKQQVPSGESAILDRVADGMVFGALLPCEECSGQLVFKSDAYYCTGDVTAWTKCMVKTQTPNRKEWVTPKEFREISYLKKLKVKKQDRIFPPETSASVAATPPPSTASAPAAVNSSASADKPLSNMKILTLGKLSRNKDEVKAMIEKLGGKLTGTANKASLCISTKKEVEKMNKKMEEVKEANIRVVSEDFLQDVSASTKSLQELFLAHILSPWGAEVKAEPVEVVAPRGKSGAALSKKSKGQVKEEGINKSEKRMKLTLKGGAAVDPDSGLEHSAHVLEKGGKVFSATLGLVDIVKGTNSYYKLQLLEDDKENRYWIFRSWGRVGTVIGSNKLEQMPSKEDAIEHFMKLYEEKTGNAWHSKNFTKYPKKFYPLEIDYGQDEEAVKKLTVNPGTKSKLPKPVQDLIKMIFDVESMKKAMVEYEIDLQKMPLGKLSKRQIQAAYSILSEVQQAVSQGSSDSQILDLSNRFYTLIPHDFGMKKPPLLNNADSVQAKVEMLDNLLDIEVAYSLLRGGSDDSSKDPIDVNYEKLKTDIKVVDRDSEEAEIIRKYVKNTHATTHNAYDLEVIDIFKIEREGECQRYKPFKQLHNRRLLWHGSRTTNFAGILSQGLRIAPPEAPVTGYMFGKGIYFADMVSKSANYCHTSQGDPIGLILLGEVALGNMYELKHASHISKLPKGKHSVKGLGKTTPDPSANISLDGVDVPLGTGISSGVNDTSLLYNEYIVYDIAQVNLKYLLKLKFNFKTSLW

SMILES	melting point [°C]	IC50 [1] [µM]	IC50 at 72 h [2] [µM]	Inhibition Rate ([3]; 0.3 µM) [%]	Inhibition Rate ([3]; 1 µM) [%]	Inhibition Rate ([3]; 3 µM) [%]	Inhibition Rate ([3]; 10 µM) [%]	Inhibition Rate ([3]; 30 µM) [%]	Inhibition Rate ([3]; 100 µM) [%]	Inhibition Rate ([3]; 300 µM) [%]	IC50 ([4]; Homo sapiens) [µM]	IC50 ([5]; Homo sapiens) [µM]	IC50 [4, 6] [µM]	IC50 [5, 6] [µM]
NC(=O)c1scc2[nH]c(-c3ccc(Cl)cc3)nc12 [Compound 16c, 2-(4-Chlorophenyl)-1H-thieno[3,4-d]imidazole-4-carboxamide]	245 to 246	0.354												
NC(=O)c1scc2[nH]c(-c3ccccc3Cl)nc12 [Compound 16d, 2-(2-Chlorophenyl)-1H-thieno[3,4-d]imidazole-4-carboxamide]	202 to 204	1.49												
NC(=O)c1scc2[nH]c(-c3c(Cl)cccc3Cl)nc12 [Compound 16e, 2-(2,6-Dichlorophenyl)-1H-thieno[3,4-d]imidazole-4-carboxamide]	210 to 212													
NC(=O)c1scc2[nH]c(-c3ccc(C(F)(F)F)cc3)nc12 [Compound 16f, 2-(4-(Trifluoromethyl)phenyl)-1H-thieno[3,4-d]imidazole-4-carboxamide]	283 to 285	0.548												
NC(=O)c1scc2[nH]c(-c3cccc(C(F)(F)F)c3)nc12 [Compound 16g, 2-(3-(Trifluoromethyl)phenyl)-1H-thieno[3,4-d]imidazole-4-carboxamide]		0.151	77.6 ± 1.5	−1.65	−1.02	−0.63	0.76	4.13	69.88	99.40	31.3 ± 0.35	38.6 ± 6.75		
NC(=O)c1scc2[nH]c(-c3ccccc3C(F)(F)F)nc12 [Compound 16h, 2-(2-(Trifluoromethyl)phenyl)-1H-thieno[3,4-d]imidazole-4-carboxamide]	241 to 243													
NC(=O)c1scc2[nH]c(-c3ccc([N+](=O)[O-])cc3)nc12 [Compound 16i, 2-(4-Nitrophenyl)-1H-thieno[3,4-d]imidazole-4-carboxamide]		0.136	94.1 ± 2.2	−0.05	1.33	0.99	3.37	2.56	55.26	99.63	32.9 ± 4.21	26.8 ± 1.55		
COc1ccc(-c2nc3c(C(N)=O)scc3[nH]2)cc1 [Compound 16j, 2-(4-Methoxyphenyl)-1H-thieno[3,4-d]imidazole-4-carboxamide]		0.102	> 300	0.68	2.85	2.68	6.95	9.43	12.63	32.37	55.14 ± 0.24	46.6 ± 0.62		
COc1cccc(-c2nc3c(C(N)=O)scc3[nH]2)c1 [Compound 16k, 2-(3-Methoxyphenyl)-1H-thieno[3,4-d]imidazole-4-carboxamide]	230 to 242	1.49												
Cc1ccc(-c2nc3c(C(N)=O)scc3[nH]2)cc1 [Compound 16l, 2-(p-Tolyl)-1H-thieno[3,4-d]imidazole-4-carboxamide]		0.043	> 300	0.42	3.80	7.12	10.16	13.65	23.20	27.94	49.2 ± 5.43	38.8 ± 1.6		
Cc1cccc(-c2nc3c(C(N)=O)scc3[nH]2)c1 [Compound 16m, 2-(m-Tolyl)-1H-thieno[3,4-d]imidazole-4-carboxamide]	254 to 255	5.79												
Cc1ccccc1-c1nc2c(C(N)=O)scc2[nH]1 [Compound 16n, 2-(o-Tolyl)-1H-thieno[3,4-d]imidazole-4-carboxamide]	222 to 223	0.328												
O=C(c1cc(Cc2n[nH]c(=O)c3ccccc23)ccc1F)N1CCN(C(=O)C2CC2)CC1 [Olaparib, olaparib, reference compound]			134 ± 3.14	1.88	1.83	1.10	1.37	1.04	29.60	91.45	133 ± 14.4	13.4 ± 1.16		
C[C@]1(c2nc3c(C(N)=O)cccc3[nH]2)CCCN1 [Veliparib, veliparib, reference compound]			~200	1.00	−0.28	−1.20	−1.35	−0.06	−0.45	93.64			127 ± 18.1	57.7 ± 12.4
